Here are results for 13 molecules from ChEMBL document CHEMBL1131815, “Derivatives of (R)-2-amino-5-methoxytetralin: antagonists and inverse agonists at the dopamine D2A receptor” (Bioorg Med Chem Lett, 1999).

In test [1] the target is T1, D(2) dopamine receptor (Homo sapiens, UniProt P14416). Nature of the test: Displacement of [3H]quinpirole from human dopamine D2A receptors expressed in LtK cells. The class given is cell-based. Background: Displacement assays read how much labelled ligand stays bound in the presence of the test substance.
In test [2] the target is T1, D(2) dopamine receptor. Put plainly: Displacement of [3H]raclopride from human dopamine D2A receptors expressed in LtK cells. It is filed as cell-based.
Test [3] concerns the target T1, D(2) dopamine receptor.

Bounds are passed on as bounds.

T1 sequence (P14416 whole entry): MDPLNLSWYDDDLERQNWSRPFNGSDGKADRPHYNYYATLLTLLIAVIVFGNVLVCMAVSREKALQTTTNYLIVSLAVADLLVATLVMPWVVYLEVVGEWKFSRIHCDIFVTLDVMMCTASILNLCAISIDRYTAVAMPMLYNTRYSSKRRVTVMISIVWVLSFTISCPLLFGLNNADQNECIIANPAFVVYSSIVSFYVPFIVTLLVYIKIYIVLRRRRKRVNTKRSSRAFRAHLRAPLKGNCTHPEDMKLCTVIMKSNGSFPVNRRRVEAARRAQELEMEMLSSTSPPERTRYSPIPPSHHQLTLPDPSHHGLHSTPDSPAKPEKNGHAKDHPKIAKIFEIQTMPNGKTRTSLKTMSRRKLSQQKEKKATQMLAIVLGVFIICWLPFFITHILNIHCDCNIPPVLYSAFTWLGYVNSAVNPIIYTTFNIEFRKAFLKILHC

With `CCCN(Cc1cccs1)[C@@H]1CCc2c(cccc2OC)C1`, the inhibition constant Ki (in general, the equilibrium dissociation constant of an inhibitor or competing ligand from its target) came to 339 nM in test [1] and 152 nM in test [2]. The molecule also yielded a nH in test [3] of 0.9.

Turning to `CCCN[C@@H]1CCc2c(cccc2OC)C1`, the inhibition constant (Ki) in test [1] was found to be 82.3 nM; in test [2], 114 nM. Besides, the nH in test [3] turned out to be 1.06.

On to `CCCN(Cc1ccc([N+](=O)[O-])cc1)[C@@H]1CCc2c(cccc2OC)C1`, for which the Ki in test [1] was 215 nM; in test [2], 59.2 nM. Moreover, the nH in test [3] is 0.9.

Consider `COc1cccc2c1CC[C@@H](NCc1ccccc1)C2`, for which the inhibitory constant (Ki) amounted to 1310 nM in test [1] and 1010 nM in test [2]. The same molecule registered a nH in test [3] of 0.83.

For the molecule `CCCN(Cc1ccco1)[C@@H]1CCc2c(cccc2OC)C1`, the Ki in test [1] is 118 nM; in test [2], 125 nM. Moreover, the nH in test [3] was 0.83.

With `CCCN(Cc1ccc(F)cc1)[C@@H]1CCc2c(cccc2OC)C1`, the figures for the inhibitory constant (Ki) in test [1] and in test [2] were 69.7 nM and 43.8 nM, respectively. In test [3], this molecule showed a nH of 0.9.

Consider `CCCN(Cc1ccc(OC)cc1)[C@@H]1CCc2c(cccc2OC)C1`, for which the Ki in test [1] stood at 64.1 nM; in test [2], 22 nM. In addition, the nH in test [3] worked out at 0.94.

For `COc1cccc2c1CC[C@@H](N(Cc1ccccc1)Cc1ccccc1)C2`, the Ki in test [1] and in test [2] was over 5000 nM in each case.

With `CCCN(Cc1ccccc1)[C@@H]1CCc2c(cccc2OC)C1`, the Ki in test [1] was determined as 75 nM; in test [2], 65.6 nM. Also, in test [3], the nH is 1.05.

Molecule `CCCN(CCC)[C@@H]1CCc2c(F)cccc2C1` yielded a nH in test [3] of 0.89.

The molecule `CCCN(Cc1ccccc1)[C@@H]1CCc2c(F)cccc2C1` yielded a nH in test [3] of 0.86.

As to `CCCN(CCC)[C@@H]1CCc2c(cccc2OC)C1`, the values for the inhibition constant (Ki) in test [1] and in test [2] were 6.35 nM and 46 nM, respectively. In test [3], the nH was 1.06.

In test [3], `NCCc1ccc(O)c(O)c1` displayed a nH of 0.65.
